Results as given in publication PMC11330772, “Unveiling the kinetic versatility of aryl-alcohol oxidases with different electron acceptors” (Frontiers in Bioengineering and Biotechnology, 2024).
Where two headings read alike, the source gives them in different places. One block for each molecule: values may come before it.

Columns and labels:
BaAAO [1] = molecular target: T1, BaAAO (Bjerkandera adusta, UniProt A0ABF7PQ87)
Description: (§4) Data were globally fitted to an equation describing a one-step process.

PeAAO [2] = molecular target: T2, PeAAO (Pleurotus eryngii, UniProt O94219)
Description: as §4

BaAAO [3] = molecular target: T1, BaAAO; experiment: Stopped-flow reductive half-reaction (flavin reduction by alcohol); format: biochemical; details: anaerobic, 50 mM sodium phosphate, pH 6.0, 25 °C
Method: (§1) Studies on the reductive half-reaction were performed by mixing AAO (∼10 μM, final concentration) with increasing concentrations of alcohols under anaerobic conditions. Observed rate constants (k obs) were calculated using global analysis and numerical integration methods, simultaneously utilizing all spectral data in the 400–800 nm region along time evolution using the ProKineticist software from Applied Photophysics.

PeAAO [4] = molecular target: T2, PeAAO; experiment: as above; format: biochemical
Method: as §1

BaAAO [5] = molecular target: T1, BaAAO; experiment: Redox state of the enzyme during turnover (stopped-flow); format: biochemical; details: in the presence of O2 (air), saturating alcohol, pH 6.0, 25 °C
BaAAO [6] = molecular target: T1, BaAAO; experiment: Steady-state bi-substrate kinetics of alcohol oxidation; format: biochemical
Method: (§2) Bi-substrate kinetics were analyzed by concurrently varying the concentration of the aforementioned alcohols and electron acceptors. Oxygen assays were carried out in a screw-cap cuvette where the alcohol was equilibrated with the desired concentration of O2 by bubbling with the appropriate O2/N2 gas mixture (4%, 10%, 21%, 44%, and 100% O2) for 10 min. Alcohol oxidation was initiated by the addition of the enzyme and followed at 285 nm for 4-methoxybenzaldehyde production and 295 nm in the case of 3-Cl-4-methoxybenzaldehyde (Δε285 = 16,950 M^−1cm^−1 and Δε295 = 15,000 M^−1cm^−1, respectively) ([Ferreira et al., 2005]). […]. BQ solutions were prepared immediately prior to use and protected from the light to avoid photodegradation.
(§3) The initial rates for bi-substrate kinetics were fitted to Eq. 1 or Eq. 2, which describe sequential and ping-pong kinetic mechanisms, respectively. […]

PeAAO [7] = molecular target: T2, PeAAO; experiment: as above; format: biochemical
Method: as §2, §3

BaAAO [8] = molecular target: T1, BaAAO; experiment: biochemical
Description: as §4

PeAAO [9] = molecular target: T2, PeAAO; design: method as in Carro et al. (2018a); details: pH 6.0, 12 °C, ref Carro et al. (2018a), cited from earlier work
PeAAO [10] = molecular target: T2, PeAAO; design: method as in Ferreira et al. (2023); details: alcohol substrate 4-methoxybenzyl alcohol, 50 mM phosphate, pH 6.0, 25 °C, ref Ferreira et al. (2023); cited from earlier work
BaAAO [11] = molecular target: T1, BaAAO; design: method as in Ferreira et al. (2023); details: alcohol substrate 4-methoxybenzyl alcohol, 50 mM phosphate, pH 6.0, 25 °C, ref Ferreira et al. (2023); cited from earlier work
PeAAO [12] = molecular target: T2, PeAAO; details: pH 6.0, 12 °C, cited from earlier work
PeAAO [13] = molecular target: T2, PeAAO; experiment: Stopped-flow oxidative half-reaction (flavin reoxidation by O2 or BQ); details: PeAAO
[14] = substrate: COc1ccc(CO)cc1Cl; experiment: Steady-state bi-substrate kinetics of alcohol oxidation; format: biochemical, Bjerkandera adusta; details: other: BaAAO, 50 mM phosphate, pH 6.0, 25 °C
Method: as §2, §3

[15] = substrate: O=C1C=CC(=O)C=C1; experiment: as above; format: biochemical, Bjerkandera adusta; details: other: BaAAO, alcohol substrate 3-Cl-4-methoxybenzyl alcohol, 50 mM phosphate, pH 6.0, 25 °C
Method: as §2, §3

[16] = substrate: COc1ccc(CO)cc1Cl; experiment: as above; format: biochemical, Pleurotus eryngii; details: other: PeAAO, 50 mM phosphate, pH 6.0, 25 °C
Method: as §2, §3

[17] = substrate: O=C1C=CC(=O)C=C1; experiment: as above; format: biochemical, Pleurotus eryngii; details: other: PeAAO, alcohol substrate 3-Cl-4-methoxybenzyl alcohol, 50 mM phosphate, pH 6.0, 25 °C
Method: as §2, §3

[18] = 50 mM sodium phosphate, pH 6.0, 12 °C
[19] = anaerobic, 50 mM sodium phosphate, pH 6.0, 25 °C
[20] = BaAAO, alcohol substrate 3-Cl-4-methoxybenzyl alcohol, 50 mM phosphate, pH 6.0, 25 °C
[21] = alcohol substrate 3-Cl-4-methoxybenzyl alcohol, 50 mM phosphate, pH 6.0, 25 °C

k off (BaAAO [1]; [18]): 13 ± 1 s⁻¹ | k on (BaAAO [1]; [18]): 47000 ± 2000 M⁻¹ s⁻¹ | Kd (BaAAO [1]; read-out: K d(acid), K d = k off/k on, pH 6.0, 12 °C): 276 ± 38 µM | k on (PeAAO [2]; [18]): 37000 ± 1000 M⁻¹ s⁻¹ | k off (PeAAO [2]; 50 mM sodium phosphate, pH 6.0, 12 °C, nd = not detected): no dissociation
Molecule: COc1ccc(C(=O)O)cc1Cl [3-Cl-4-methoxybenzoic acid]

k red (BaAAO [3]): 121 ± 11 s⁻¹ | k red/K d(alcohol) (BaAAO [3]): 404000 ± 127000 M⁻¹ s⁻¹ | Kd (BaAAO [3]; read-out: K d(alcohol)): 300 ± 91 µM | k red (PeAAO [4]; [19]): 96 ± 3 s⁻¹ | k red/K d(alcohol) (PeAAO [4]; [19]): 4,486 ± 725 s^−1mM^-1 | Kd (PeAAO [4]; anaerobic, 50 mM sodium phosphate, pH 6.0, 25 °C, read-out: K d(alcohol)): 21 ± 3 µM | k red higher than k cat (PeAAO [4]; turnover with BQ): 4 fold | k red higher than k cat (PeAAO [4]; turnover with O2): 2 fold | reduced form of the enzyme during turnover (BaAAO [5]): ≤ 60% | turnover of BaAAO higher than PeAAO (BaAAO [6]; O2 as electron acceptor): 2 fold | k cat lower than for the other substrate (4-methoxybenzyl alcohol) (PeAAO [7]): 4 fold
Molecule: COc1ccc(CO)cc1Cl [3-Cl-4-methoxybenzyl, 3-chloro-4-methoxybenzyl alcohol]

Kd (BaAAO [8]): 1810 ± 197 µM | k off (BaAAO [8]; pH 6): 18 ± 2 s⁻¹ | k on (BaAAO [8]; pH 6): 10000 ± 1000 M⁻¹ s⁻¹ | k on slower than that of 3-Cl-4-methoxybenzoic acid (BaAAO [1]): ~5 fold | k on slower than that of 3-Cl-4-methoxybenzoic acid (PeAAO [2]): approximately 2 fold
Molecule: COc1ccc(C(=O)O)cc1 [4-Methoxybenzoic acid, 4-methoxybenzoic acid]
k off (PeAAO [9]; 50 mM sodium phosphate): 3 ± 1 s⁻¹ | k on (PeAAO [9]; 50 mM sodium phosphate): 18000 ± 1000 M⁻¹ s⁻¹ | Kd (PeAAO [9]; K d = k off/k on, read-out: K d(acid)): 149 ± 10 µM

Molecule: O=O [O2]
K m(acceptor) (BaAAO [6]; [20]): 225 ± 8 µM | k cat/K m(acceptor) (BaAAO [6]; [20]): 312000 ± 12000 M⁻¹ s⁻¹ | K m(acceptor) (PeAAO [7]; [21]): 67 ± 2 µM | k cat/K m(acceptor) (PeAAO [7]; [21]): 647000 ± 22000 M⁻¹ s⁻¹ | K m(acceptor) (PeAAO [10]): 176 ± 1 µM | k cat/K m(acceptor) (PeAAO [10]): 1,139 ± 35 s^−1mM^−1 | K m(acceptor) (BaAAO [11]): 134 ± 5 µM | k cat/K m(acceptor) (BaAAO [11]): 549000 ± 23000 M⁻¹ s⁻¹ | k ox(O2) (PeAAO [12]; PeAAO reduced by 3-Cl-4-methoxybenzyl alcohol, ref Ferreira et al. (2015)): 790 ± 20 ^b s^−1mM^−1 | k ox(O2) (PeAAO [12]; PeAAO reduced by 4-methoxybenzyl alcohol, ref Carro et al. (2018a)): 770 ± 40 ^a s^−1mM^−1 | reverse rate constant (k rev), y-axis intercept of reoxidation (PeAAO [13]): 17 s⁻¹

B1: BaAAO (Bjerkandera adusta) (protein)
chain: MVTFFTDASQLPATVYDFIVVGAGNAGNVVAARLTEDWKTTVLLIEAGISHEGIDSVAVPGLVLDNLPFSPVMWNYTTVPQAALDNRPIPYAKGRVVGGSSSVNFMEYTRSSNTEYDRWANLTGDAGWSWKNMEQYYLKNSRLVPPQDGHNTTGDVDPSVHGYGPVPLSLVGTPNPLDARMRAATQAPGAEFPFQLDMNGGDMIGFGIVQSTILNGERMHSGKAFLEPAMSRPNLHVLIENTVTRLIQTKTTNGLPSFMKVEFARDALSARSVVTATKEVVLSAGSIGTPQILMLSGIGDREELTAIGVNVTVDNPAVGKHLKDHPIMANYFQVNSNETYDDIFRDRDVSNTFLAQWKQNRTGPMVASPSTGLGFFRLPDNDTIFERFADPSPGEGAGHIELILSNQWTPEVQIPPATGSFLTVHAVVVSPASEGTVRLNSTNPFEFPLLDPQLLSSEFDQHTIIHAARLARQFVSSSPWADFVESRTGIIGDTDDDEADLLAAARQATVTIWHPMCTARMAPKGSTDGAIDPDLLVKGVSGLRVIDGAALPAIPATHPMAAIYLLAERGSDLIKQKWKL
Km ([14]; BQ as e− acceptor (anaerobic)): 26 ± 4 µM | kcat ([14]; BQ as e− acceptor (anaerobic)): 23 ± 1 s⁻¹ | kcat/Km ([14]; BQ as e− acceptor (anaerobic)): 910000 ± 146000 M⁻¹ s⁻¹ | Km ([14]; O2 as e− acceptor): 94 ± 4 µM | kcat ([14]; O2 as e− acceptor): 70 ± 1 s⁻¹ | kcat/Km ([14]; O2 as e− acceptor): 747000 ± 32000 M⁻¹ s⁻¹ | Km [15]: 66 ± 12 µM

B2: PeAAO (Pleurotus eryngii) (protein)
chain: ADFDYVVVGAGNAGNVVAARLTEDPDVSVLVLEAGVSDENVLGAEAPLLAPGLVPNSIFDWNYTTTAQAGYNGRSIAYPRGRMLGGSSSVHYMVMMRGSTEDFDRYAAVTGDEGWNWDNIQQFVRKNEMVVPPADNHNTSGEFIPAVHGTNGSVSISLPGFPTPLDDRVLATTQEQSEEFFFNPDMGTGHPLGISWSIASVGNGQRSSSSTAYLRPAQSRPNLSVLINAQVTKLVNSGTTNGLPAFRCVEYAEQEGAPTTTVCAKKEVVLSAGSVGTPILLQLSGIGDENDLSSVGIDTIVNNPSVGRNLSDHLLLPAAFFVNSNQTFDNIFRDSSEFNVDLDQWTNTRTGPLTALIANHLAWLRLPSNSSIFQTFPDPAAGPNSAHWETIFSNQWFHPAIPRPDTGSFMSVTNALISPVARGDIKLATSNPFDKPLINPQYLSTEFDIFTMIQAVKSNLRFLSGQAWADFVIRPFDPRLRDPTDDAAIESYIRDNANTIFHPVGTASMSPRGASWGVVDPDLKVKGVDGLRIVDGSILPFAPNAHTQGPIYLVGKQGADLIKADQ
Km ([16]; BQ as e− acceptor (anaerobic)): 4 ± 1 µM | kcat ([16]; BQ as e− acceptor (anaerobic)): 21 ± 1 s⁻¹ | kcat/Km ([16]; BQ as e− acceptor (anaerobic)): 5,874 ± 481 s^−1mM^−1 | Km ([16]; O2 as e− acceptor): 11 ± 1 µM | kcat ([16]; O2 as e− acceptor): 43 ± 1 s⁻¹ | kcat/Km ([16]; O2 as e− acceptor): 3,806 ± 122 s^−1mM^−1 | Km [17]: 29 ± 2 µM
